Assay results reported in patent US9073903B2, “Imidazole-2,4-dione inhibitors of casein kinase 1” (Jasco Pharmaceuticals, LLC, priority 2010, dated 2015).
Where two headings read alike, the source gives them in different places.

Tests used:
[1] = Hepatic microsomal stability, human; type: in vitro ADME
Procedure: (§1) Hepatic microsmal assays were performed with compound 5114 in human and rat (Sprague-Dawley). Protein concentrations of 0.4 (human) and 0.2 mg/mL (rat) with an NADPH regenerating cofactor system (2.6 mM NADP+, 6.6 mM glucose-6-phosphate, 0.8 U/mL glucose-6-phosphate dehydrogenase, and 6.6 mM magnesium chloride) were used. A 100 μM 20% DMSO/80% acetonitrile working stock of each of the compounds was diluted 100 fold resulting in 1 μM compound/1% final organic reaction concentrations. Time points were removed at 0 and 60 minutes. At each time point, 100 μL of the incubation suspension was added to 200 μL of acetonitrile containing internal standard (tolbutamide), followed by centrifugation at 3,220 rcf for 10 minutes. Two hundred (200) μL of the resulting supernatants were removed, dried under nitrogen and reconstituted in 100 μL of 2 mM ammonium acetate, 0.1% formic acid in 50% methanol prior to analysis by LC/MS/MS. Testosterone and dexamethasone were used as reference compounds.

[2] = Hepatic microsomal stability, rat; type: in vitro ADME, rat (Sprague-Dawley)
Procedure: as §1

[3] = PAMPA, 5 h, 10 μM, pH 7.4
Procedure: The target concentration in the assay was 10 μM, prepared by diluting (1000-fold) the 10 mM stock solutions in DMSO into PBS, pH 7.4. The final DMSO concentration was 0.1%. The 10 μM solutions were added, 300 μL, to wells in the donor plate. The receiver plate, which contained 200 μL of PBS, pH 7.4 per well, was placed in the donor plate and the assembly was incubated for 5 hours at ambient temperature. At the end of the incubation period the plates were separated and the compound concentrations in each solution were determined by LC/MS/MS. The assay was performed in triplicate.
C0 is the initial concentration in the donor well (μM)
CD(t) is the concentration in the donor well after incubation (μM)
CA(t) is the concentration in the acceptor well after incubation (μM)
VD is the volume in the donor well (0.3 mL)
VA is the volume in the acceptor well (0.2 mL)
CE is (CD(t)VD+CA(t)VA)/(VD+VA)
A is the filter area (0.3 cm2)
t is the incubation time (18,000 s).

different kinases = assay: Kinase activity screening by Millipore UK Ltd, percent kinase activity at 300 nM of compound (Table 31); type: biochemical
Procedure: Protocols for Kinase Activity Screening: Kinase screening was performed by Millipore UK Ltd. Kinase dilution buffer composition: 20 mM MOPS, 1 mM EDTA, 0.01% Brij-35, 5% Glycerol, 0.1% b-mercaptoethanol, 1 mg/mL BSA.

Caco-2 cells = assay: Inhibition of Caco-2 cells (MTS cell proliferation); type: cell-based; conditions: for inhibition at 0.4 µM / inhibition at 0.8 µM / inhibition at 1.6 µM / inhibition at 3.2 µM / inhibition at 6.25 µM / inhibition at 12.5 µM / inhibition at 25 µM / inhibition at 50 µM / inhibition at 100 µM / IC50: Homo sapiens; for inhibition at 0.4 µM: 0.400 μM; for inhibition at 0.4 µM / inhibition at 0.8 µM / inhibition at 1.6 µM / inhibition at 3.2 µM / inhibition at 6.25 µM / inhibition at 12.5 µM / inhibition at 25 µM / inhibition at 50 µM / inhibition at 100 µM: 72 hours; for inhibition at 0.8 µM: 0.800 μM; for inhibition at 1.6 µM: 1.600 μM; for inhibition at 3.2 µM: 3.200 μM; for inhibition at 6.25 µM: 6.250 μM; for inhibition at 12.5 µM: 12.500 μM
Procedure: Inhibition of Caco-2 Cells Cells: Caco-2 cells, ATCC Passage 33, Mycoplasma free. Medium: DMEM Medium (GIBCO Cat #11995073) supplemented with 10% fetal bovine serum (Hyclone Cat #SH30396.03). Seeding: 3,000 cells/well (100 μL) into 96-wells plate, incubated overnight at 37° C. in a humidified, 5% CO2 atmosphere. […] Fifty microliters (50 μL) of diluted compounds were added into each well. The final concentrations of the positive control and test compounds were shown in the graphs. The cells were incubated for 72 hours after addition of the test compounds. MTS: 15 uL of MTS solution (Promega Cat #G5430) was added into each well and incubated with cells for 4 hours at 37° C. in a humidified, 5% CO2 atmosphere. Measurement: Absorbance at 490 nm was measured using MD Spectramax Plus384 spectrophotometer. The regression curves were calculated by the GraphPad Prism 5 using “log(inhibitor) vs response—variable slope”. Calculation: % of inhibition=(ODzero ctrl−OD compound)/ODzero ctrl*100.

[4] = replicate 1, read-out: % of inhibition 1
[5] = replicate 2, read-out: % of inhibition 2

In the case of `C[C@@H]1C[C@H]2[C@@H]3CCC4=CC(=O)C=C[C@]4(C)[C@@]3(F)[C@@H](O)C[C@]2(C)[C@@]1(O)C(=O)CO` [Dexamethasone], the “% remaining after incubation, Human Microsomes” value ([1]; human, microsomes, 1 h, 1 μM) is reported as 85%, the “% remaining after incubation, Rat Microsomes” value ([2]; Sprague-Dawley, rat, microsomes, 1 h, 1 μM) is reported as 91% and the “Mass Retention R” value [3] is reported as 9%.

For `Nc1ccc2c(c1)CN(c1nccc(/C=C3\NC(=O)NC3=O)n1)CC2` [Example 64, (Z)-5-((2-(7-amino-3,4-dihydroisoquinolin-2(1H)-yl)pyrimidin-4-yl)methylene)imidazolidine-2,4-dione], the “Percent Kinase Activity of Enzyme CK1” value (different kinases) was 81%, the “Percent Kinase Activity of Enzyme CK1g2” value (different kinases) was 75% and the “Percent Kinase Activity of Enzyme CK2” value (different kinases) was 65%. For the same compound, the “Percent Kinase Activity of Enzyme Pim-1” value (different kinases) was 83%, the “Percent Kinase Activity of Enzyme Pim-2” value (different kinases) was 81% and the “Percent Kinase Activity of Enzyme Pim-3” value (different kinases) was 97%.

With `NCC1CCN(c2nccc(/C=C3\NC(=O)NC3=O)n2)CC1` [Example 65, (Z)-5-((2-(4-(aminomethyl)piperidin-1-yl)pyrimidin-4-yl)methylene)imidazolidine-2,4-dione] the “Percent Kinase Activity of Enzyme CK1” value (different kinases) was 97%, the “Percent Kinase Activity of Enzyme CK1g2” value (different kinases) was 96% and the “Percent Kinase Activity of Enzyme CK2” value (different kinases) was 94%. For the same compound, the “Percent Kinase Activity of Enzyme Pim-1” value (different kinases) was 92%, the “Percent Kinase Activity of Enzyme Pim-2” value (different kinases) was 78% and the “Percent Kinase Activity of Enzyme Pim-3” value (different kinases) was 76%.

For `Nc1cccc2c1CCN(c1nccc(/C=C3\NC(=O)NC3=O)n1)C2` [Example 66, (Z)-5-((2-(5-amino-3,4-dihydroisoquinolin-2(1H)-yl)pyrimidin-4-yl)methylene)imidazolidine-2,4-dione], the “Percent Kinase Activity of Enzyme CK1” value (different kinases) was 98%, the “Percent Kinase Activity of Enzyme CK1g2” value (different kinases) was 77% and the “Percent Kinase Activity of Enzyme CK2” value (different kinases) was 78%. For the same compound, the “Percent Kinase Activity of Enzyme Pim-1” value (different kinases) was 91%, the “Percent Kinase Activity of Enzyme Pim-2” value (different kinases) was 86% and the “Percent Kinase Activity of Enzyme Pim-3” value (different kinases) was 96%.

For `CN(c1nccc(/C=C2\NC(=O)NC2=O)n1)[C@H]1CCCNC1` [Example 67, (S,Z)-5-((2-(methyl(piperidin-3-yl)amino)pyrimidin-4-yl)methylene)imidazolidine-2,4-dione], the “Percent Kinase Activity of Enzyme CK1” value (different kinases) was 104%, the “Percent Kinase Activity of Enzyme CK1g2” value (different kinases) was 111% and the “Percent Kinase Activity of Enzyme CK2” value (different kinases) was 94%. For the same compound, the “Percent Kinase Activity of Enzyme Pim-1” value (different kinases) was 98%, the “Percent Kinase Activity of Enzyme Pim-2” value (different kinases) was 99% and the “Percent Kinase Activity of Enzyme Pim-3” value (different kinases) was 114%.

With `O=C1NC(=O)/C(=C/c2ccnc(N3CCC(CNCc4ccc5ccccc5n4)CC3)n2)N1` [Example 68, (Z)-5-((2-(4-(((quinolin-2-ylmethyl)amino)methyl)piperidin-1-yl)pyrimidin-4-yl)methylene)imidazolidine-2,4-dione] the “Percent Kinase Activity of Enzyme CK1” value (different kinases) was 97%, the “Percent Kinase Activity of Enzyme CK1g2” value (different kinases) was 84% and the “Percent Kinase Activity of Enzyme CK2” value (different kinases) was 109%. The “Percent Kinase Activity of Enzyme Pim-1” value (different kinases) was 75%, the “Percent Kinase Activity of Enzyme Pim-2” value (different kinases) was 69% and the “Percent Kinase Activity of Enzyme Pim-3” value (different kinases) was 63%.

In the case of `O=C1NC(=O)/C(=C/c2ccnc(N3CCC(CNCc4cccc(-c5ccsc5)n4)CC3)n2)N1` [Example 69, (Z)-5-((2-(4-((((6-(thiophen-3-yl)pyridin-2-yl)methyl)amino)methyl)piperidin-1-yl)pyrimidin-4-yl)methylene)imidazolidine-2,4-dione], the “Percent Kinase Activity of Enzyme CK1” value (different kinases) is reported as 92%, the “Percent Kinase Activity of Enzyme CK1g2” value (different kinases) is reported as 76% and the “Percent Kinase Activity of Enzyme CK2” value (different kinases) is reported as 106%. For the same compound, the “Percent Kinase Activity of Enzyme Pim-1” value (different kinases) was 46%, the “Percent Kinase Activity of Enzyme Pim-2” value (different kinases) was 86% and the “Percent Kinase Activity of Enzyme Pim-3” value (different kinases) was 59%.

`CNC(=O)c1cc(Oc2ccc(NC(=O)Nc3ccc(Cl)c(C(F)(F)F)c3)cc2)ccn1` [Sorafenib] gave an inhibition at 0.4 µM (Caco-2 cells; [4]) of 0.049%, an inhibition at 0.4 µM (Caco-2 cells; [5]) of 0.315% and an inhibition at 0.8 µM (Caco-2 cells; [4]) of 9.97%. It also gave an inhibition at 0.8 µM (Caco-2 cells; [5]) of 6.24%, an inhibition at 1.6 µM (Caco-2 cells; [4]) of 14.3% and an inhibition at 1.6 µM (Caco-2 cells; [5]) of 11.4%. For the same compound, the inhibition at 3.2 µM (Caco-2 cells; [4]) was 17%, the inhibition at 3.2 µM (Caco-2 cells; [5]) was 9.39% and the inhibition at 6.25 µM (Caco-2 cells; [4]) was 19.9%. For the same compound, the inhibition at 6.25 µM (Caco-2 cells; [5]) was 23.5%, the inhibition at 12.5 µM (Caco-2 cells; [4]) was 76.8% and the inhibition at 12.5 µM (Caco-2 cells; [5]) was 76.3%. For the same compound, the inhibition at 25 µM (Caco-2 cells; [4]) was 100%, the inhibition at 25 µM (Caco-2 cells; [5]) was 98.5% and the inhibition at 50 µM (Caco-2 cells; [4]) was 102%. It also gave an inhibition at 50 µM (Caco-2 cells; [5]) of 99%, an inhibition at 100 µM (Caco-2 cells; [4]) of 84.1% and an inhibition at 100 µM (Caco-2 cells; [5]) of 96.7%. It also gave an IC50 (Caco-2 cells; Table 18, read-out: Caco-2* 50% inhibition concentration) of 8.78 µM, an IC50 (Caco-2 cells; Table 26, 72 hours, read-out: 50% viability conc.) of 8.77 µM and an IC50 (Caco-2 cells; Table 26, 72 hours, read-out: IC50) of 9.37 µM. It also gave a Maximal inhibition % (Caco-2 cells; Table 26, 72 hours) of 100%.

In the case of `C[C@]12CC[C@H]3[C@@H](CCC4=CC(=O)CC[C@@]43C)[C@@H]1CC[C@@H]2O` [Testosterone], the “% remaining after incubation, Human Microsomes” value ([1]; 1 μM compound, 0.4 mg/mL protein, NADPH regenerating system, 60 minutes) is reported as 42% and the “% remaining after incubation, Rat Microsomes” value ([2]; 1 μM compound, 0.2 mg/mL protein, NADPH regenerating system, 60 minutes) is reported as 0.6%.
